Reference: ChEMBL document CHEMBL4725489, “Synthesis, Characterization, and In Silico Studies of Novel Spirooxindole Derivatives as Ecto-5'-Nucleotidase Inhibitors” (ACS Med Chem Lett, 2020)
Calls of active or inactive are those of the source. No cut-off for these calls is given here.

Key:
5'-nucleotidase [1] = biological target: T1, 5'-nucleotidase (Homo sapiens, UniProt P21589); assay: Inhibition of recombinant human ecto-5' nucleotidase expressed in COS7 cell membranes assessed as inorganic phosphate release using AMP as substrate preincubated for 10 mins followed by substrate addition and measured after 20 mins by malachite green dye based spectrophotometry
Target sequence in this assay (P21589 whole entry): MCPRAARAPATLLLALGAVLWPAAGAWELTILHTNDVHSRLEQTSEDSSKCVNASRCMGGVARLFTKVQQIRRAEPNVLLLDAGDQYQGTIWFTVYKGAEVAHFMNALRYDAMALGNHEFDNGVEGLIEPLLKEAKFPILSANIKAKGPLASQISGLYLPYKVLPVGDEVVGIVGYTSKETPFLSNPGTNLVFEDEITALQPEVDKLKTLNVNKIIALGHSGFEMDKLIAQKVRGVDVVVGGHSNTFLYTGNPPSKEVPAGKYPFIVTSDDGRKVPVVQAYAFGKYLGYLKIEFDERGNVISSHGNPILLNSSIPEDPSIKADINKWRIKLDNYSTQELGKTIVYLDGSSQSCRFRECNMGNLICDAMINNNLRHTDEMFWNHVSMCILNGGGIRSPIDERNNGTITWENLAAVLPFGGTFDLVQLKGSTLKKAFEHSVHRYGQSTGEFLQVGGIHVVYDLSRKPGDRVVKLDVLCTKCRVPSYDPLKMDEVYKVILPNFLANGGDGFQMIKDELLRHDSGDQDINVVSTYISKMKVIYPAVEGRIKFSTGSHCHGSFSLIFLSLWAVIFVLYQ

[2] = biological target: T2, 5'-nucleotidase (Rattus norvegicus) (UniProt P21588); assay: (§1) Inhibition of recombinant rat ecto-5' nucleotidase expressed in COS7 cell membranes assessed as inorganic phosphate release using AMP as substrate at 100 uM preincubated for 10 mins followed by substrate addition and measured after 20 mins by malachite green dye based spectrophotometry relative to control
T2 sequence (whole entry): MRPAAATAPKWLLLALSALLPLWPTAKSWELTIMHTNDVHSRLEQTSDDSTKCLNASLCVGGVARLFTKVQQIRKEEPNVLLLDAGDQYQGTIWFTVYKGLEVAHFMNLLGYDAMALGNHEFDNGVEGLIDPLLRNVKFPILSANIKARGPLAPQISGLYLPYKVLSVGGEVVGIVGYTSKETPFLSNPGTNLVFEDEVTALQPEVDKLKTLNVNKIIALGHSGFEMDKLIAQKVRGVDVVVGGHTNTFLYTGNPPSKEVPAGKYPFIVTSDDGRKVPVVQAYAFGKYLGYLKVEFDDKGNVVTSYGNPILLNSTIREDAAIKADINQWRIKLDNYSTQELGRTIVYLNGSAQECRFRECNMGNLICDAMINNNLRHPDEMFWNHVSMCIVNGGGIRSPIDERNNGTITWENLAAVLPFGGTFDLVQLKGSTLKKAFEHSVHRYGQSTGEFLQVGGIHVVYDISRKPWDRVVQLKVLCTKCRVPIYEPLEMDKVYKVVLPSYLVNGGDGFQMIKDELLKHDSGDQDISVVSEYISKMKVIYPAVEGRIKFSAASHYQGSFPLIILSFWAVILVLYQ

5'-nucleotidase [3] = biological target: T1, 5'-nucleotidase; assay: Inhibition of recombinant human ecto-5' nucleotidase expressed in COS7 cell membranes using AMP as substrate preincubated for 10 mins followed by substrate addition and measured after 20 mins by capillary electrophoresis method
Target sequence in this assay (P21589 whole entry): as the sequence (P21589 whole entry) above

5'-nucleotidase [4] = biological target: T3, 5'-nucleotidase (Rattus norvegicus, UniProt P21588); assay: Inhibition of recombinant rat ecto-5' nucleotidase expressed in COS7 cell membranes assessed as inorganic phosphate release using AMP as substrate uM preincubated for 10 mins followed by substrate addition and measured after 20 mins by malachite green dye based spectrophotometry
T3 sequence (P21588 whole entry): T2 sequence (whole entry)

5'-nucleotidase [5] = biological target: T1, 5'-nucleotidase; assay: as §1, with “recombinant human” for “recombinant rat”
Target sequence in this assay (P21589 whole entry): as the sequence (P21589 whole entry) above

5'-nucleotidase [6] = biological target: T1, 5'-nucleotidase; assay: Potency index, ratio of sulfamic acid IC50 to compound IC50 for human ecto-5' nucleotidase expressed in COS7 cell membranes assessed as inorganic phosphate release using AMP as substrate preincubated for 10 mins followed by substrate addition and measured after 20 mins by malachite green dye based …
Target sequence in this assay (P21589 whole entry, looked up): as the sequence (P21589 whole entry) above

5'-nucleotidase [7] = biological target: T1, 5'-nucleotidase; assay: Noncompetitive inhibition of human ecto-5' nucleotidase assessed as increase in Km with constant Vmax at 0 to 0.6 uM by Lineweaver-Burk plot analysis; settings: dose microM 0-0.6
Target sequence in this assay (P21589 whole entry): as the sequence (P21589 whole entry) above

[8] = biological target: T2, 5'-nucleotidase (Rattus norvegicus); assay: Uncompetitive inhibition of rat ecto-5' nucleotidase assessed as increase in Km with constant Vmax at 0 to 0.6 uM by Lineweaver-Burk plot analysis; settings: dose microM 0-0.6
[9] = Selectivity index, ratio of IC50 for recombinant rat ecto-5' nucleotidase expressed in COS7 cell membranes to IC50 for recombinant human ecto-5' nucleotidase expressed in COS7 cell membranes; type: cell-based

Compound	IC50 (5'-nucleotidase [1])	inhibition [2]	IC50 (5'-nucleotidase [4])	inhibition (5'-nucleotidase [5])	also measured
CN1C(=O)C2(C(C#N)=C(N)Nc3n[nH]cc32)c2ccccc21 (centres undefined)	0.69 µM	41%	–	–	–
Cc1ccc(-n2nc(C)c3cc(Cl)c(-c4cc(C)ccc4O)nc32)cc1	–	–	–	–	IC50 (5'-nucleotidase [3]): 0.32 µM
Cc1[nH]nc2c1C1(C(=O)N(C)c3ccc(OC(F)(F)F)cc31)C(C#N)=C(N)N2 (centres undefined)	0.18 µM	–	3.56 µM	–	–
Cc1[nH]nc2c1C1(C(=O)N(C)c3ccc(Cl)cc31)C(C#N)=C(N)N2 (centres undefined)	–	–	1.56 µM	33%	–
N#CC1=C(N)Nc2n[nH]cc2C12C(=O)Nc1ccccc12 (centres undefined)	–	41.7%	–	27.6%	–
Cc1[nH]nc2c1C1(C(=O)N(C)c3ccc([N+](=O)[O-])cc31)C(C#N)=C(N)N2 (centres undefined)	–	45.1%	–	34.3%	–
CN1C(=O)C2(C(C#N)=C(N)Nc3n[nH]cc32)c2cc(OC(F)(F)F)ccc21 (centres undefined)	0.15 µM	–	0.52 µM	–	Ratio IC50 (5'-nucleotidase [6]): 280; inhibition (5'-nucleotidase [7]): Active
Cc1[nH]nc2c1C1(C(=O)N(C)c3ccccc31)C(C#N)=C(N)N2 (centres undefined)	–	–	0.19 µM	36.6%	inhibition [8]: Active
Cc1[nH]nc2c1C1(C(=O)Nc3ccccc31)C(C#N)=C(N)N2 (centres undefined)	–	36.5%	–	33%	–
Cc1[nH]nc2c1C1(C(=O)N(C)c3ccc(F)cc31)C(C#N)=C(N)N2 (centres undefined)	0.26 µM	–	5.01 µM	–	–
CN1C(=O)C2(C(C#N)=C(N)Nc3n[nH]cc32)c2cc([N+](=O)[O-])ccc21 (centres undefined)	–	–	2.12 µM	38%	–
CN1C(=O)C2(C(C#N)=C(N)Nc3n[nH]cc32)c2cc(Cl)ccc21 (centres undefined)	–	–	0.68 µM	39.7%	–
CN1C(=O)C2(C(C#N)=C(N)Nc3n[nH]cc32)c2cc(F)ccc21 (centres undefined)	0.46 µM	–	7.99 µM	–	Ratio IC50 [9]: 17.3
